Measurements taken from PubChem BioAssay (NCI).
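Step 1: Grow cells in 96-well plates. Step 2: Expose to compound for 48 hours at 5 concentrations. Step 3: Interpolate endpoints linearly; if unreached, use highest concentration. GI50 = concentration required for 50% inhibition of growth. The concentration for full growth arrest is given as TGI.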

Experiments:
Assay in all cases: NCI tumour cell line growth inhibition, 48 h
[1] = test system: 786-0 renal
[2] = test system: A498 renal
[3] = test system: A549 NSCLC
[4] = test system: ACHN renal
[5] = test system: BT-549 breast
[6] = test system: CAKI-1 renal
[7] = test system: CCRF-CEM leukemia
[8] = test system: COLO 205 colon
[9] = test system: DU-145 prostate
[10] = test system: EKVX NSCLC
[11] = test system: HCC-2998 colon
[12] = test system: HCT-116 colon
[13] = test system: HCT-15 colon
[14] = test system: HL-60(TB) leukemia
[15] = test system: HOP-62 NSCLC
[16] = test system: HOP-92 NSCLC
[17] = test system: HS 578T breast
[18] = test system: HT29 colon
[19] = test system: K-562 leukemia
[20] = test system: KM12 colon
[21] = test system: LOX IMVI melanoma
[22] = test system: M14 melanoma
[23] = test system: MALME-3M melanoma
[24] = test system: MCF7 breast
[25] = test system: MDA-MB-231 breast
[26] = test system: MDA-MB-435
[27] = test system: MOLT-4 leukemia
[28] = test system: NCI-H226 lung
[29] = test system: NCI-H23 lung
[30] = test system: NCI-H460 lung
[31] = test system: NCI/ADR-RES ovarian
[32] = test system: OVCAR-3 ovarian
[33] = test system: OVCAR-4 ovarian
[34] = test system: OVCAR-5 ovarian
[35] = test system: OVCAR-8 ovarian
[36] = test system: PC-3 prostate
[37] = test system: RPMI-8226 leukemia
[38] = test system: SF-268 CNS
[39] = test system: SF-295 CNS
[40] = test system: SF-539 CNS
[41] = test system: SK-MEL-28 melanoma
[42] = test system: SK-MEL-5 melanoma
[43] = test system: SK-OV-3 ovarian
[44] = test system: SN12C renal
[45] = test system: SNB-19 CNS
[46] = test system: SNB-75 CNS
[47] = test system: SR leukemia
[48] = test system: SW-620 colon
[49] = test system: T-47D breast
[50] = test system: TK-10 renal
[51] = test system: U251 CNS
[52] = test system: UACC-257 melanoma
[53] = test system: UACC-62 melanoma
[54] = test system: IGROV1 ovarian
[55] = test system: RXF 393 renal
[56] = test system: SK-MEL-2 melanoma
[57] = test system: UO-31 renal

O=C(COc1cccc(/C=C2/Oc3ccccc3C2=O)c1)Nc1nccs1
GI50 [1]: 3.3 µM
TGI [1]: 14.4 µM
GI50 [2]: 20.8 µM
TGI [2]: 85.4 µM
GI50 [3]: 23.6 µM
TGI [3]: > 100 µM
GI50 [4]: 27.4 µM
TGI [4]: > 100 µM
GI50 [5]: 14.9 µM
TGI [5]: 43.7 µM
GI50 [6]: 15.9 µM
TGI [6]: 34.4 µM
GI50 [7]: 1.89 µM
TGI [7]: 3.73 µM
GI50 [8]: 24.4 µM
TGI [8]: 97.9 µM
GI50 [9]: 27.8 µM
TGI [9]: > 100 µM
GI50 [10]: 31.9 µM
TGI [10]: > 100 µM
GI50 [11]: 29 µM
TGI [11]: 68.9 µM
GI50 [12]: 22.8 µM
TGI [12]: > 100 µM
GI50 [13]: 28.3 µM
TGI [13]: > 100 µM
GI50 [14]: 2.86 µM
TGI [14]: 8.58 µM
GI50 [15]: 38.3 µM
TGI [15]: > 100 µM
GI50 [16]: 10.1 µM
TGI [16]: 30.2 µM
GI50 [17]: 24.4 µM
TGI [17]: > 100 µM
GI50 [18]: 32.7 µM
TGI [18]: > 100 µM
GI50 [19]: 16.4 µM
TGI [19]: 53.7 µM
GI50 [20]: 10.5 µM
TGI [20]: 32.9 µM
GI50 [21]: 2.78 µM
TGI [21]: 10.2 µM
GI50 [22]: 30.5 µM
TGI [22]: > 100 µM
GI50 [23]: 21.2 µM
TGI [23]: 50.9 µM
GI50 [24]: 14.8 µM
TGI [24]: > 100 µM
GI50 [25]: 7.95 µM
TGI [25]: 29.8 µM
GI50 [26]: 21.2 µM
TGI [26]: 68 µM
GI50 [27]: 13 µM
TGI [27]: 31.4 µM
GI50 [28]: 22.9 µM
TGI [28]: 67.9 µM
GI50 [29]: 24.8 µM
TGI [29]: > 100 µM
GI50 [30]: 31.6 µM
TGI [30]: > 100 µM
GI50 [31]: 30 µM
TGI [31]: > 100 µM
GI50 [32]: 14.6 µM
TGI [32]: 38.8 µM
GI50 [33]: 19.5 µM
TGI [33]: 61.8 µM
GI50 [34]: 44 µM
TGI [34]: > 100 µM
GI50 [35]: 16.5 µM
TGI [35]: 50.1 µM
GI50 [36]: 15.7 µM
TGI [36]: 58.1 µM
GI50 [37]: 4.28 µM
TGI [37]: 23.1 µM
GI50 [38]: 6.23 µM
TGI [38]: 26.6 µM
GI50 [39]: 36.4 µM
TGI [39]: > 100 µM
GI50 [40]: 17.1 µM
TGI [40]: 31.9 µM
GI50 [41]: 28.9 µM
TGI [41]: > 100 µM
GI50 [42]: 16.4 µM
TGI [42]: 35.2 µM
GI50 [43]: 48.6 µM
TGI [43]: > 100 µM
GI50 [44]: 22.4 µM
TGI [44]: > 100 µM
GI50 [45]: 25.4 µM
TGI [45]: > 100 µM
GI50 [46]: 17.1 µM
TGI [46]: 58.1 µM
GI50 [47]: 4.09 µM
TGI [47]: 15.9 µM
GI50 [48]: 27.4 µM
TGI [48]: > 100 µM
GI50 [49]: 16.8 µM
TGI [49]: 58.5 µM
GI50 [50]: 15.9 µM
TGI [50]: 68.7 µM
GI50 [51]: 20.8 µM
TGI [51]: > 100 µM
GI50 [52]: 20.7 µM
TGI [52]: 56.3 µM
GI50 [53]: 25.6 µM
TGI [53]: 95.9 µM

O=c1[nH]c2ccc(C(F)(F)F)cc2nc1Cc1ccccc1
TGI [1]: > 100 µM
TGI [2]: 66.9 µM
TGI [4]: 88.4 µM
TGI [5]: 69.4 µM
TGI [6]: > 100 µM
TGI [7]: > 100 µM
TGI [8]: 40.7 µM
TGI [9]: > 100 µM
TGI [10]: > 100 µM
TGI [11]: 82.6 µM
TGI [12]: > 100 µM
TGI [13]: > 100 µM
TGI [14]: > 100 µM
TGI [15]: > 100 µM
TGI [16]: 50.4 µM
TGI [17]: 71.3 µM
TGI [18]: 68.7 µM
TGI [54]: > 100 µM
TGI [19]: > 100 µM
TGI [20]: > 100 µM
TGI [21]: > 100 µM
TGI [22]: 97.1 µM
TGI [24]: > 100 µM
TGI [25]: > 100 µM
TGI [26]: > 100 µM
TGI [27]: 46 µM
TGI [28]: 50.7 µM
TGI [29]: 46.5 µM
TGI [30]: > 100 µM
TGI [31]: 71.2 µM
TGI [33]: > 100 µM
TGI [35]: > 100 µM
TGI [36]: 81.3 µM
TGI [37]: 87.6 µM
TGI [55]: 61.6 µM
TGI [38]: > 100 µM
TGI [39]: > 100 µM
TGI [40]: > 100 µM
TGI [56]: 62.6 µM
TGI [41]: > 100 µM
TGI [42]: 60.2 µM
TGI [43]: > 100 µM
TGI [45]: > 100 µM
TGI [46]: > 100 µM
TGI [47]: > 100 µM
TGI [48]: > 100 µM
TGI [49]: > 100 µM
TGI [50]: > 100 µM
TGI [51]: > 100 µM
TGI [52]: > 100 µM
TGI [53]: > 100 µM
TGI [57]: > 100 µM

NC(=O)c1c2c(n3ccccc13)C(=O)c1ccccc1C2=O
TGI [1]: > 100 µM
TGI [2]: > 100 µM
TGI [4]: > 100 µM
TGI [5]: > 100 µM
TGI [6]: > 100 µM
TGI [7]: > 100 µM
TGI [8]: > 100 µM
TGI [9]: > 100 µM
TGI [10]: > 100 µM
TGI [11]: > 100 µM
TGI [12]: > 100 µM
TGI [13]: > 100 µM
TGI [14]: > 100 µM
TGI [15]: > 100 µM
TGI [16]: > 100 µM
TGI [17]: > 100 µM
TGI [18]: > 100 µM
TGI [54]: > 100 µM
TGI [19]: > 100 µM
TGI [20]: > 100 µM
TGI [21]: > 100 µM
TGI [22]: > 100 µM
TGI [24]: > 100 µM
TGI [25]: 93 µM
TGI [26]: 44 µM
TGI [27]: > 100 µM
TGI [28]: > 100 µM
TGI [29]: 36.4 µM
TGI [30]: 82.5 µM
TGI [31]: > 100 µM
TGI [33]: > 100 µM
TGI [35]: > 100 µM
TGI [36]: > 100 µM
TGI [37]: > 100 µM
TGI [55]: > 100 µM
TGI [38]: > 100 µM
TGI [39]: > 100 µM
TGI [40]: > 100 µM
TGI [56]: > 100 µM
TGI [41]: > 100 µM
TGI [42]: 37 µM
TGI [43]: > 100 µM
TGI [45]: > 100 µM
TGI [46]: > 100 µM
TGI [47]: > 100 µM
TGI [48]: > 100 µM
TGI [49]: > 100 µM
TGI [50]: > 100 µM
TGI [51]: > 100 µM
TGI [52]: > 100 µM
TGI [53]: > 100 µM
TGI [57]: > 100 µM
